target: human GluN1/GluN2B NMDA receptors (Homo sapiens, UniProt Q05586+Q13224); assay: Cell-based calcium flux (FLIPR) assay on cloned human NR1/NR2B ion channels expressed in mammalian cells; conditions: standard assay; glutamate at ~EC80; FLIPR calcium flux
In short: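 Calcium influx followed by FLIPR fluorescence after 5 min compound exposure and a further 5 min co-agonist challenge: 10 μM glycine with glutamate at ~EC80 (standard) or EC40 (HTS).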

Sequence of human GluN1/GluN2B NMDA receptors (Q13224 27-1484, other chains not shown): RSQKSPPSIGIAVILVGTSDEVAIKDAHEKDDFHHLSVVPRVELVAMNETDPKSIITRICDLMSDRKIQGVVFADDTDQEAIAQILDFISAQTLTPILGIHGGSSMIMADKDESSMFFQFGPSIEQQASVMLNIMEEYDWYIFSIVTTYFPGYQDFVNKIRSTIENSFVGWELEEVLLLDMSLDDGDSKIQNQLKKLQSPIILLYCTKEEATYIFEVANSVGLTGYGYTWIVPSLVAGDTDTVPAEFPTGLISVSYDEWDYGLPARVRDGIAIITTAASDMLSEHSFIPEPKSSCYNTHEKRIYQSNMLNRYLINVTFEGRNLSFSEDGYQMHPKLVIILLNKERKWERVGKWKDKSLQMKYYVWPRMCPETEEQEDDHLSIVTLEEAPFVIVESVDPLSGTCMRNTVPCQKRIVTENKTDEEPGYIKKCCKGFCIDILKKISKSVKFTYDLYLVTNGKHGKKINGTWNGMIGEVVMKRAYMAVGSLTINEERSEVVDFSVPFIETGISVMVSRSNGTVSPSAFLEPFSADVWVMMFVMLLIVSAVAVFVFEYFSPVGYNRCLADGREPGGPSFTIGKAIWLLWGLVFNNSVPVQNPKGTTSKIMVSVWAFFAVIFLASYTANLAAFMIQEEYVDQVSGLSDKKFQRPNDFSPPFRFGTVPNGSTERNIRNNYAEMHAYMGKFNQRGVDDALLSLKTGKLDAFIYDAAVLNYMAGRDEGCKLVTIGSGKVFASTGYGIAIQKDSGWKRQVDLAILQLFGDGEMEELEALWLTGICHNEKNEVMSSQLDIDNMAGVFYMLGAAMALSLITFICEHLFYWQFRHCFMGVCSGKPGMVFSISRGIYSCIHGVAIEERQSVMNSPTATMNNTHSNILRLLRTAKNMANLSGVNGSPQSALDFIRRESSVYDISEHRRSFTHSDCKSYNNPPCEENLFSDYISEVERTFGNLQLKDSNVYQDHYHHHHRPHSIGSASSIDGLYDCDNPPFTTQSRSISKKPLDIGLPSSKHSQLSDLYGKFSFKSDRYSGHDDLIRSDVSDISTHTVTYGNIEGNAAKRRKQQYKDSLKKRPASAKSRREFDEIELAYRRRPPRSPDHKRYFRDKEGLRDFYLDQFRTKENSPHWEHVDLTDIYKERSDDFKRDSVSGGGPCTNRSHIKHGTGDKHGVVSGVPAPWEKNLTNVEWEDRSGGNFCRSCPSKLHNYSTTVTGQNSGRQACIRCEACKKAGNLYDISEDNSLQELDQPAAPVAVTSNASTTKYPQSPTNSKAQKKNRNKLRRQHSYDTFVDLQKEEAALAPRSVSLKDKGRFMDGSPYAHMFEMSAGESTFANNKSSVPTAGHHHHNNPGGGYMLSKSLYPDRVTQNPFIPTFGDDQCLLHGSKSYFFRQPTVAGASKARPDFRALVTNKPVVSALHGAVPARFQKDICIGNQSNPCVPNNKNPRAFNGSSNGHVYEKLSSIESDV

Structure (SMILES)	IC50 [µM]
CCc1cnc(OCc2cn(-c3cccc(C)n3)nn2)nc1 [Example 660, 5-Ethyl-2-[[1-(6-methyl-2-pyridyl)triazol-4-yl]methoxy]pyrimidine]	> 2.99
Cc1cccc(-n2cc(COc3ncc(Cl)c(C)n3)nn2)n1 [Example 661, 5-Chloro-4-methyl-2-[[1-(6-methyl-2-pyridyl)triazol-4-yl]methoxy]pyrimidine]	> 2.99
Cc1cnc(OCc2cn(-c3cc(C)ccn3)nn2)nc1 [Example 662, 5-Methyl-2-[[1-(4-methyl-2-pyridyl)triazol-4-yl]methoxy]pyrimidine]	> 2.99
CCc1cnc(OCc2cn(-c3cc(C)ccn3)nn2)nc1 [Example 663, 5-Ethyl-2-[[1-(4-methyl-2-pyridyl)triazol-4-yl]methoxy]pyrimidine]	2.45
CCc1cnc(OCc2cn(-c3ccnc(C)c3)nn2)nc1 [Example 664, 5-Ethyl-2-[[1-(2-methyl-4-pyridyl)triazol-4-yl]methoxy]pyrimidine]	0.169
CCc1cnc(OCc2cn(-c3ccnc(Br)c3)nn2)nc1 [Example 665, 2-[[1-(2-Bromo-4-pyridyl)triazol-4-yl]methoxy]-5-ethyl-pyrimidine]	0.261
Cc1cnc(OCc2cn(-c3ccnc(C(F)(F)F)c3)nn2)nc1 [Example 666, 5-Methyl-2-[[1-[2-(trifluoromethyl)-4-pyridyl]triazol-4-yl]methoxy]pyrimidine]	0.668
CCc1cnc(OCc2cn(-c3ccnc(C(F)(F)F)c3)nn2)nc1 [Example 667, 5-Ethyl-2-[[1-[2-(trifluoromethyl)-4-pyridyl]triazol-4-yl]methoxy]pyrimidine]	0.184
Cc1nc(OCc2cn(-c3ccc(C(F)(F)F)s3)nn2)ncc1F [Example 668, 5-Fluoro-4-methyl-2-((1-(5-(trifluoromethyl)thiophen-2-yl)-1H-1,2,3-triazol-4-yl)methoxy)pyrimidine]	0.008
COc1cnc(OCc2cn(-c3ccc(C(F)(F)F)s3)nn2)nc1 [Example 669, 5-Methoxy-2-((1-(5-(trifluoromethyl)thiophen-2-yl)-1H-1,2,3-triazol-4-yl)methoxy)pyrimidine]	0.004
FC(F)(F)c1cnc(OCc2cn(-c3ccc(C(F)(F)F)s3)nn2)nc1 [Example 670, 5-(Trifluoromethyl)-2-((1-(5-(trifluoromethyl)thiophen-2-yl)-1H-1,2,3-triazol-4-yl)methoxy)pyrimidine]	0.063
Fc1ccc(-n2cc(COc3nccc(NC4COC4)n3)nn2)cc1OC(F)F [Example 671, 2-((1-(3-(Difluoromethoxy)-4-fluorophenyl)-1H-1,2,3-triazol-4-yl)methoxy)-N-(oxetan-3-yl)pyrimidin-4-amine]	0.126
Fc1ccc(-n2cc(COc3nccc(-c4ccc[nH]4)n3)nn2)cc1OC(F)F [Example 681, 2-((1-(3-(Difluoromethoxy)-4-fluorophenyl)-1H-1,2,3-triazol-4-yl)methoxy)-4-(1H-pyrrol-2-yl)pyrimidine]	0.681
Fc1ccc(-n2cc(COc3nccc(NC4CC4)n3)nn2)cc1C(F)F [Example 690, N-Cyclopropyl-2-((1-(3-(difluoromethyl)-4-fluorophenyl)-1H-1,2,3-triazol-4-yl)methoxy)pyrimidin-4-amine]	0.008
CCNc1ccnc(OCc2cn(-c3ccc(F)c(C(F)F)c3)nn2)n1 [Example 691, N-Ethyl-2-((1-(3-(difluoromethyl)-4-fluorophenyl)-1H-1,2,3-triazol-4-yl)methoxy)pyrimidin-4-amine]	0.006
Cc1nccn1-c1ccnc(OCc2cn(-c3ccc(F)c(C(F)F)c3)nn2)n1 [Example 692, 2-((1-(3-(Difluoromethyl)-4-fluorophenyl)-1H-1,2,3-triazol-4-yl)methoxy)-4-(2-methyl-1H-imidazol-1-yl)pyrimidine]	1.58
CC(F)(F)c1ccnc(OCc2cn(-c3ccc(F)c(C(F)F)c3)nn2)n1 [Example 696, 4(1,1-Difluoroethyl)-2-((1-(3-(difluoromethyl)-4-fluorophenyl)-1H-1,2,3-triazol-4-yl)methoxy)pyrimidine]	0.958
Fc1ccc(-n2cc(COc3nccc(-n4cccn4)n3)nn2)cc1C(F)F [Example 699, 2-((1-(3-(Difluoromethyl)-4-fluorophenyl)-1H-1,2,3-triazol-4-yl)methoxy)-4-(1H-pyrazol-1-yl)pyrimidine]	0.389
CC(F)(F)c1cnc(OCc2cn(-c3ccc(F)c(C(F)F)c3)nn2)nc1 [Example 701, 5-(1,1-Difluoroethyl)-2-((1-(3-(difluoromethyl)-4-fluorophenyl)-1H-1,2,3-triazol-4-yl)methoxy)pyrimidine]	0.958
CCOCc1ccnc(OCc2cn(-c3ccc(F)c(OC(F)F)c3)nn2)n1 [Example 711, 2-((1-(3-(Difluoromethoxy)-4-fluorophenyl)-1H-1,2,3-triazol-4-yl)methoxy)-4-(ethoxymethyl)pyrimidine]	0.043
Fc1ccc(-n2cc(COc3nccc(COCC(F)F)n3)nn2)cc1OC(F)F [Example 716, 4-((2,2-Difluoroethoxy)methyl)-2-((1-(3-(difluoromethoxy)-4-fluorophenyl)-1H-1,2,3-triazol-4-yl)methoxy)pyrimidine]	0.049
